We go through one substance from patent publication US20060270589A1, “Carotenoids, carotenoid analogs, or carotenoid derivatives for the treatment of visual disabilities” (priority 2005, published 2006).

Data set [1] concerns superoxide anion generation from phorbol-ester (PMA)-stimulated PMNs. Put plainly: Direct superoxide anion scavenging by EPR spectroscopy (DEPMPO spin-trap) in isolated human neutrophil assay. It counts as cell-based. The note with it: 40% EtOH, 0.1 mM; EtOH vehicle background 5%; listed as lutein diphosphate, sodium salt. The method, then:
Human polymorphonuclear leukocytes (PMNs) were isolated from freshly sampled venous blood of a single volunteer by Percoll density gradient centrifugation as described previously. Briefly, each 10 mL of whole blood was mixed with 0.8 mL of 0.1 M EDTA and 25 mL saline. The diluted blood was then layered over 9 mL Percoll at a specific density of 1.080 g/mL. After centrifugation at 400 g for 20 min at 20° C., the plasma, mononuclear cell, and Percoll layers were removed. Erythrocytes were subsequently lysed by addition of 18 mL ice-cold water for 30 s, followed by 2 mL of 10× PIPES buffer (25 mM PIPES, 110 mM NaCl, and 5 mM KCl, titrated to pH 7.4 with NaOH). […] Afterward, PMNs were counted by light microscopy on a hemocytometer. […]
All EPR measurements were performed using a Bruker ER 300 EPR spectrometer operating at X-band with a TM110 cavity as previously described. The microwave frequency was measured with a Model 575 microwave counter (EIP Microwave, Inc., San Jose, Calif.). […]
Instrument settings used in the spin-trapping experiments were as follows: modulation amplitude, 0.32 G; time constant, 0.16 s; scan time, 60 s; modulation frequency, 100 kHz; microwave power, 20 mW; and microwave frequency, 9.76 GHz. The samples were placed in a quartz EPR .at cell, and spectra were recorded. The component signals in the spectra were identified and quantified as reported previously.

The format of data set [2] is physicochemical. The procedure:
(§1) 30.13 mg of 3 was added to 1 mL USP-purified water. The sample was rotated for 2 h and then centrifuged for 5 min. After centrifuging, solid was visible in the bottom of the tube. A 125 μL aliquot of the solution was then diluted to 25 mL. The sample was analyzed by UV/Vis spectroscopy at 436 nm, and the absorbance was compared to a standard curve compiled from four standards of known concentration. The concentration of the original supernatant was calculated to be 2.85 mg/mL and the absorptivity was 36.94 AU mL/cm mg. Slight error may have been introduced by the small size of the original aliquot.
as §1, with “Next, 30.80” for “30.13”, “8” for “3”, “411” for “436”, “29.27” for “2.85”, “2.90” for “36.94”

Take “3,3′-Diphosphoryloxy-β,ε-carotene sodium salt [Compound 8]”: the “Mean (% inhibition) of superoxide anion signal” value in data set [1] is “(mean % inhibition = 18%) was increased above background scavenging (5%)”. In addition, the “Increase in aqueous dispersibility versus the disuccinate sodium salt” value in data set [2] is over 10 fold.
